Measurements reported in US20220402862A1 (Intellia Therapeutics, Inc., priority 2019, published 2022).
Several values for one entry are separate records, joined by “and”; a condition that tells them apart may be missing. Equal values may be shown once.

Legend:
Transthyretin (TTR) = experiment: Serum TTR ELISA in mice after LNP dosing; type: in vivo, CD-1 female mice
In short: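 Female CD-1 mice, 6–10 weeks, given LNPs by tail-vein injection (~10 mL/kg), 0.1 mg/kg unless noted; serum taken at day 6 or 7 by cardiac puncture. Total mouse TTR by ELISA on sera diluted 10,000-fold (0.1 mg/kg) or 10,000- and 2,500-fold (0.3 mg/kg).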

[1] = RNA encapsulation efficiency of LNPs (Ribogreen fluorescence assay); type: physicochemical; details: LNP; for Encapsulation (%): sg:mRNA 1:1, N/P about 6, amine lipid/DSPC/cholesterol/PEG-2k-DMG 50/9/38/3, Table 2, Experiments 2-20
In short: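 LNPs were diluted in 1× TE with 0.2% Triton X-100 (total RNA) or without it (free RNA), stained with RiboGreen for ~10 min at room temperature in the dark, and read at Ex 488/Em 525 nm against standard curves of the starting RNA. Encapsulation efficiency = (Total − Free)/Total.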

[2] = Dynamic light scattering of LNPs: Z-average diameter, number average diameter, PDI; type: physicochemical; details: LNP
In short: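 LNP samples were diluted in PBS and measured by DLS to give intensity-based Z-average diameter, number average diameter and polydispersity index. PDI describes size spread around the mean, with zero meaning a uniform population.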

[3] = pKa measurement of unformulated amine lipid (fluorescence, method of Jayaraman et al.); type: physicochemical; details: 100 μM in 0.1 M phosphate buffer, pH 2.0-12.0
Description: The pKa of each amine lipid was determined according to the method in Jayaraman, et al. (Angewandte Chemie, 2012) with the following adaptations. […] Lipid was diluted to 100 μM in 0.1 M phosphate buffer (Boston Bioproducts) where the pH ranged from 2.0-12.0. Fluorescence intensity was measured using excitation and emission wavelengths of 321 nm and 448 nm.

mouse TTR gene = experiment: In vivo editing in mouse liver, sgRNA targeting TTR (G282 or G502), % indel by NGS; parameters: species or system CD-1 female mice
Description: CD-1 female mice ranging from 6-10 weeks of age were used in each study. Animals were weighed and grouped according to body weight for preparing dosing solutions based on group average weight. LNPs were dosed via the lateral tail vein in a volume of 0.2 mL per animal (approximately 10 mL per kilogram body weight). The animals were periodically observed for adverse effects for at least 24 hours post dose. For studies measuring in vivo editing in liver, CD-1 female mice were dosed at 0.1 mg/kg unless otherwise noted. Animals were euthanized at 6 or 7 days by ex sanguination via cardiac puncture under isoflurane anesthesia. Liver tissue was collected from each animal for DNA extraction and analysis. Blood was collected into serum separator tubes or into tubes containing buffered sodium citrate for plasma as described herein. Cohorts of mice were measured for editing by Next-Generation Sequencing (NGS).
In brief, to quantitatively determine the efficiency of editing at the target location in the genome, genomic DNA was isolated and deep sequencing was utilized to identify the presence of insertions and deletions introduced by gene editing.
PCR primers were designed around the target site (e.g., within B2M), and the genomic area of interest was amplified. Additional PCR was performed according to the manufacturer's protocols (Illumina) to add the necessary chemistry for sequencing. The amplicons were sequenced on an Illumina MiSeq instrument. The reads were aligned to the mouse or rat reference genome (e.g., GRCm38) after eliminating those having low quality scores. The resulting files containing the reads were mapped to the reference genome (BAM files), where reads that overlapped the target region of interest were selected and the number of wild type reads versus the number of reads which contain an insertion, substitution, or deletion was calculated.
The editing percentage (e.g., the “indel efficiency” or “percent indels”) was defined as the total number of sequence reads with insertions or deletions over the total number of sequence reads, including wild type.
We assessed in vivo editing efficiency for materials delivered with formulations including various amine lipid compounds. Editing was measured using either G282 (SEQ ID No: 1) which targets the mouse TTR gene or G650 (SEQ ID No. 2) which targets the mouse B2M gene. Lipids described above were assessed for efficacy through in vivo editing experiments. LNPs were formulated at a 1:1 or 1:1.3 w/w ratio of sgRNA to Cas9 mRNA, and at an N/P ratio of about 6. Molar concentrations of lipids in the lipid component of the LNPs are used at mol % amine lipid/DSPC/cholesterol/PEG-2k-DMG of 50/9/38/3. The final LNPs were characterized to determine the encapsulation efficiency, polydispersity index, and average particle size according to the analytical methods provided above. Analysis of average particle size, polydispersity (PDI), total RNA content and encapsulation efficiency of RNA are shown in Table 2.
To assess whether the editing was dose responsive, experiments were performed in vivo at various LNP dose levels. Cas9 mRNA of Example 120 was formulated as LNPs with an sgRNA targeting TTR (G282, SEQ ID NO: 1; or G502, SEQ ID NO: 4).
We assessed in vivo delivery by measuring editing efficiency for materials delivered with formulations that included various amine lipid compounds. Cas9 mRNA (SEQ ID NO: 6) was formulated as LNPs with an sgRNA targetting the TTR mouse gene (SEQ ID NO: 4). LNPs were formulated at a 1:2 w/w ratio of sgRNA to Cas9 mRNA, and at an N/P ratio of about 6. Molar concentrations of lipids in the lipid component of the LNPs are used at mol % amine lipid/DSPC/cholesterol/PEG-2k-DMG of 50/9/38/3. The final LNPs compositions were characterized and analyzed as described in Example 120. Analysis of average particle size, polydispersity (PDI), total RNA content and encapsulation efficiency of RNA are shown in Table 6.

[4] = mouse serum TTR relative to TSS control, guide G502, i.v. 0.1 mg/kg
[5] = mouse serum, guide G502, i.v. 0.1 mg/kg
[6] = sg:mRNA 1:2, N/P about 6, 50/9/38/3, TTR sgRNA (SEQ ID NO: 4), Table 6, Experiments 106-107
[7] = sg:mRNA 1:2, N/P about 6, 50/9/38/3, Table 6, Experiments 106-107
[8] = guide G502, i.v. 0.1 mg/kg, sgRNA:Cas9 mRNA 1:2 w/w, experiments 106, 107
[9] = sg:mRNA 1:1, N/P 6.0, 50/9/38/3, Table 4, Experiments 101-104
[10] = sg:mRNA 1:1, N/P about 6, 50/9/38/3, Table 2, Experiments 2-20
[11] = mouse, LNP i.v. 0.03 mg/kg, guide G502, Experiment 105
[12] = mouse, LNP i.v. 0.03 mg/kg, guide G502, Experiment 105, relative to TSS control
[13] = mouse, LNP i.v. 0.1 mg/kg, guide G502, Experiment 105
[14] = mouse, LNP i.v. 0.1 mg/kg, guide G502, Experiment 105, relative to TSS control
[15] = sg:mRNA 1:2, N/P 6.0, 50/9/38/3, Table 4, Experiment 105
[16] = LNP i.v. 0.03 mg/kg, guide G502, Experiment 105
[17] = LNP i.v. 0.1 mg/kg, guide G502, Experiment 105

| SMILES | % E [1, 6] [%] | Number mean (nm) [2, 7] [nm] | PDI [2, 7] | Z-avg (nm) [2, 7] [nm] | pKa [3] | Encapsulation (%) [1] | Number mean (nm) [2, 10] | Z-avg (nm) [2, 10] | Serum TTR % TSS (Transthyretin (TTR); [4]) [%] | Serum TTR (Transthyretin (TTR); [5]) [µg/mL] | Editing Mean % Indel (mouse TTR gene; [8]) [%] | other results |
| --- | --- | --- | --- | --- | --- | --- | --- | --- | --- | --- | --- | --- |
| CCCCC/C=C\C/C=C\CCCCCCCC(=O)OCC(COC(=O)CCC(OCCCCCCCC)OCCCCCCCC)COC(=O)NCCN1CCCCCC1 (centres unmarked) [Compound 103, 3-(((2-(azepan-1-yl)ethyl)carbamoyl)oxy)-2-(((4,4-bis(octyloxy)butanoyl)oxy)methyl)propyl (9Z,12Z)-octadeca-9,12-dienoate] | 99 | 50 | 0.05 | 65 | 7 |  |  |  | 89.3 | 1043.8 | 4.2 |  |
| CCCCCCCCOC(CCC(=O)OCC(COC(=O)CCCCCCCCCCC(=O)OCCCCCCC)COC(=O)OCCCN(CC)CC)OCCCCCCCC (centres unmarked) [Compound 61, 1-(3-((4,4-bis(octyloxy)butanoyl)oxy)-2-((((3-(diethylamino)propoxy)carbonyl)oxy)methyl)propyl) 12-heptyl dodecanedioate] |  |  |  |  | 6.29 | 97% | 72 nm | 87.26 nm |  |  |  | Serum TTR (Transthyretin (TTR); [11]): 711 µg/mL; Serum TTR % TSS (Transthyretin (TTR); [12]): 65%; Serum TTR (Transthyretin (TTR); [13]): 472 µg/mL; Serum TTR % TSS (Transthyretin (TTR); [14]): 43%; % E [1, 15]: 98%; PDI [2, 10]: 0.018; Number mean (nm) [2, 15]: 79.73 nm; PDI [2, 15]: 0.033; Z-avg (nm) [2, 15]: 99.25 nm; Editing Mean % Indel (mouse TTR gene; [16]): 7.78%; Editing Mean % Indel (mouse TTR gene; [17]): 36.06% |
| CCCCC/C=C\C/C=C\CCCCCCCC(=O)OCC(COC(=O)CCC(OCCCCCCCC)OCCCCCCCC)COC(=O)NCCN1CCCCC1 (centres unmarked) [Compound 101, 3-((4,4-bis(octyloxy)butanoyl)oxy)-2-((((2-(piperidin-1-yl)ethyl)carbamoyl)oxy)methyl)propyl (9Z,12Z)-octadeca-9,12-dienoate] | 99 | 58 | 0.04 | 73 | 6.4 |  |  |  | 56.1 | 655.8 | 25.9 |  |

Second part, led by results:

| % E [1, 6] [%] | Number mean (nm) [2, 7] [nm] | PDI [2, 7] | Z-avg (nm) [2, 7] [nm] | pKa [3] | Encapsulation (%) [1] | Number mean (nm) [2, 10] | Z-avg (nm) [2, 10] | SMILES | Serum TTR % TSS (Transthyretin (TTR); [4]) [%] | Serum TTR (Transthyretin (TTR); [5]) [µg/mL] | Editing Mean % Indel (mouse TTR gene; [8]) [%] | other results |
| --- | --- | --- | --- | --- | --- | --- | --- | --- | --- | --- | --- | --- |
|  |  |  |  | 7.31 | 98% and 99% | 58.67 nm and 59.35 nm | 75.11 nm and 73.65 nm | CCCCC/C=C\C/C=C\CCCCCCCC(=O)OCC(COC(=O)CCC(OCCCCCCCC)OCCCCCCCC)COC(=O)C1CCN(C)CC1 (centres unmarked) [Compound 31, 3-((4,4-bis(octyloxy)butanoyl)oxy)-2-((((9Z,12Z)-octadeca-9,12-dienoyl)oxy)methyl)propyl 1-methylpiperidine-4-carboxylate] |  |  |  | Serum TTR (Transthyretin (TTR); mouse, LNP i.v. 0.1 mg/kg, guide G282, Experiments 101-103): 976 µg/mL; Serum TTR % TSS (Transthyretin (TTR); mouse, LNP i.v. 0.1 mg/kg, guide G282, Experiments 101-103, relative to TSS control): 71%; Serum TTR (Transthyretin (TTR); mouse, LNP i.v. 0.3 mg/kg, guide G282, Experiments 101-103): 226 µg/mL; Serum TTR % TSS (Transthyretin (TTR); mouse, LNP i.v. 0.3 mg/kg, guide G282, Experiments 101-103, relative to TSS control): 17%; % E [1, 9]: 99%; Number mean (nm) [2, 9]: 61 nm; PDI [2, 9]: 0.04; Z-avg (nm) [2, 9]: 76 nm; Editing Mean % Indel (mouse TTR gene; LNP i.v. 0.1 mg/kg, guide G282, Experiments 101-103): 13.5%; Editing Mean % Indel (mouse TTR gene; LNP i.v. 0.3 mg/kg, guide G282, Experiments 101-103): 50.7% |
| 98 | 57 | 0.02 | 71 | 5.7 |  |  |  | CCCCC/C=C\C/C=C\CCCCCCCC(=O)OCC(COC(=O)CCC(OCCCCCCCC)OCCCCCCCC)COC(=O)OCCCN1CCCCC1 (centres unmarked) [Compound 102, 3-((4,4-bis(octyloxy)butanoyl)oxy)-2-((((3-(piperidin-1-yl)propoxy)carbonyl)oxy)methyl)propyl (9Z,12Z)-octadeca-9,12-dienoate] | 62.3 | 728.1 | 19.6 |  |
| 99 | 70 | 0.04 | 89 | 7.2 |  |  |  | CCCCC/C=C\C/C=C\CCCCCCCC(=O)OCC(COC(=O)CCC(OCCCCCCCC)OCCCCCCCC)COC(=O)NCCN1CCCC1 (centres unmarked) [Compound 100, 3-((4,4-bis(octyloxy)butanoyl)oxy)-2-((((2-(pyrrolidin-1-yl)ethyl)carbamoyl)oxy)methyl)propyl (9Z,12Z)-octadeca-9,12-dienoate] | 81.3 | 1017.4 | 12 |  |
|  |  |  |  |  | 98% and 97% | 61.34 nm and 66.88 nm and 63.16 nm | 76.82 nm and 83.92 nm and 77.24 nm | CCCCC/C=C\C/C=C\CCCCCCCC(=O)OCC(COC(=O)CCC(OCCCCCCCC)OCCCCCCCC)COC(=O)OCCC1CCCN1C (centres unmarked) [Compound 24, 3-((4,4-bis(octyloxy)butanoyl)oxy)-2-((((2-(1-methylpyrrolidin-2-yl)ethoxy)carbonyl)oxy)methyl)propyl (9Z,12Z)-octadeca-9,12-dienoate] |  |  |  | Serum TTR % TSS (Transthyretin (TTR); mouse serum TTR relative to TSS control, guide G282 experiments): 46%; Serum TTR (Transthyretin (TTR); mouse serum, guide G282 experiments, ELISA): 397 µg/mL; Serum TTR (Transthyretin (TTR); [11]): 772 µg/mL; Serum TTR % TSS (Transthyretin (TTR); [12]): 70%; Serum TTR (Transthyretin (TTR); [13]): 420 µg/mL; Serum TTR % TSS (Transthyretin (TTR); [14]): 38%; % E [1, 15]: 99%; PDI [2, 10]: 0.027 and 0.033 and 0.025; Number mean (nm) [2, 15]: 72.95 nm; PDI [2, 15]: 0.029; Z-avg (nm) [2, 15]: 88.39 nm; Editing Mean % Indel (mouse TTR gene; [16]): 11.34%; Editing Mean % Indel (mouse TTR gene; [17]): 40.54% |
